In article PMC4482662, “Engineered Trehalose Permeable to Mammalian Cells” (PLoS ONE, 2015):

Assays:
rat hepatocytes [1] = experiment: Uptake and intracellular deacetylation of acetylated trehalose in cultured rat hepatocytes (trehalase assay kit, total after NaOH hydrolysis); type: in vitro ADME; conditions: 30 mM incubation
Excerpt: Rat hepatocytes were provided by the Cell Resource Center (CRC) at the Center for Engineering in Medicine at Massachusetts General Hospital. Briefly, hepatocytes were obtained from female Lewis rats using a two-step collagenase protocol. Two or three month old rat (Charles River Laboratories, Wilmington, MA) weighing 180–200 g were used as hepatocyte source and were maintained in accordance with National Research Council guidelines. Experimental protocols in practice at CRC for the use of hepatocytes in this study were approved by the subcommittee on Research Animal Care, Massachusetts General Hospital. Using a modification of the two-step collagenase perfusion method, which involved purification of cell suspension by means of centrifugation over Percoll, approximately 200 million hepatocytes per rat liver with 85–95% viability were routinely obtained, as evaluated by Trypan blue exclusion. Hepatocytes were kept on ice and were plated within 1 h of isolation.
For trehalose loading experiments, 6-well plates were treated with 25μg/mL fibronectin for 1 h prior to plating the hepatocytes, at which point the wells were washed with PBS and the hepatocytes were seeded at 1.2–1.3×10^6 cells/well. The cells were allowed 24–48 h to attach and spread in a 10% (v/v) CO2 incubator at 37°C before they were incubated with acetylated variants of trehalose. […]
The cell lysates were analyzed for protein content using a Bradford Commassie assay for cell count approximation. Trehalose content of cell lysates were measured using a trehalose assay kit following the manufacturer’s protocol. […] This solution was analyzed for total trehalose content against the trehalose controls prepared in a similar fashion, and the concentration was adjusted for the dilution due to addition of NaOH and HCl. To estimate the number of cells, protein content of the cell lysate was assessed using the Pierce^TM Coomassie Plus (Bradford) assay (Life Technologies, Grand Island, NY, USA). […]

rat hepatocytes [2] = experiment: MTT cell viability assay after loading; type: cell-based; conditions: 48 h after loading with 30 mM
Experimental: To evaluate cell viability after incubation with acetylated trehalose compared to control group, […] 0.5 mg/ml. The cells were incubated with the MTT reagent for 2 hrs. At the end of incubation, the MTT reagent was removed and the cells were incubated with DMSO for 10 min to dissolve all crystallized formazan. Then, the concentration of formazan was assayed by reading the absorption values of the DMSO solution in a spectrophotometric plate reader at 560 nm.

rat hepatocytes [3] = experiment: Diffusion-reaction model fitted to the uptake data (membrane permeability and esterase kinetics); type: in vitro ADME
Excerpt: (§1) We assume a lumped passive diffusion model for (n)-O-Ac-Tre across the cell membrane, the rate of change in the intracellular concentration of variants of (n)-O-Ac-Tre, C n, may be expressed using Fick’s first law: d[Cn]/dt=−PnA/V([Cn*]−[Cn]), (1) where P n is the membrane permeability of (n)-O-Ac-Tre. Parameters A and V are cell surface area available for transport and cell volume, respectively. Cn* is the extracellular concentration of (n)-O-Ac-Tre, which is equal to zero for all n<6. For the intracellular de-acetylation of (n)-O-Ac-Tre to (n-1)-O-Ac-Tre by esterase activity, we assume enzymatic reaction kinetics as the following: (n)-O-Ac-Tre+E→knf←knr[(n)-O-Ac-Tre+E]→kncat(n-1)-O-Ac-Tre+E where knf,knr and kncat are the kinetic reaction constants for (n)-O-Ac-Tre variants ranging from 6 to 0. We may assume that the process of de-acetylation of 6-O-Ac-Tre is a series of parallel first order enzymatic reactions competing for enzyme molecules (Fig 2).
(§2) Based on the proposed reaction model, the rate of change in the concentration of (n)-O-Ac-Tre ([C n]) and the intermediate ([C n E]) can be expressed as: d[Cn]/dt=−knf[Cn][En]+knr[CnE]+kn+1cat[Cn+1E]−PnA/V([Cn]−[Cn*]) (2) d[CnE]/dt=knf[Cn][En]−knr[CnE]−kncat[CnE] (3)
(§3) In the above set of equations, [E n] is the fraction of the free enzyme that would interact with [C n]. Assuming quasi-steady-state condition, the left-hand-side of Eq (3) is zero. […] [CnE]=knf[Cn][En]/(knr+kncat) (4)
(§4) We may assume that the probablity of the free enzyme interaction with variants of 6-O-Ac-Tre is directly proportional to respective mole fractions, x n: [En]=[E][Cn]/∑n[Cn]=[E]xn (5) where [E] is the concentration of the free enzyme, which can also be expressed as [E] = [E 0]−∑[C n E]. By replacing Eq (5) in Eq (4), summation over n, and rearranging, we get: [E]=[E0]/1+∑([Cn][xn]/Knm) (6) where Knm=knr+kncat/knf is equivalent of the Michaelis-Menten constant for the enzymatic break-down of (n)-O-Ac-Tre variant. After substituting Eq (6) and Eq (4) in Eq (2) and rearranging, we can propose the rate of change in the concentration of (n)-O-Ac-Tre as the following: d[Cn]/dt=−Vnmax[Cn]xn/Knm(1+∑([Cn][xn]/Knm))+Vn+1max[Cn+1]xn+1/Kn+1m(1+∑([Cn][xn]/Knm))+PnA/V([Cn*]−[Cn]) (7) where Vnmax=kncat[E0] . For trehalose and 6-O-Ac-Tre, the first and second terms on the rights hand side of […] are omitted, respectively. Eq (7) is the general form of the Michaelis-Menten formulation of a multi-step enzymatic reaction for this specific case.
(§5) The permeability coefficient P n, and the coefficients Vnmax and K n in the above list of equations are unknown since no data is available in the literature on these novel molecules to be used in the model. Therefore, the values of these parameters were obtained by fitting the model to the data using a custom-written code in MATLAB (The MathWorks, Natick, MA, USA).
(§6) The proposed diffusion-reaction model in the Methods section allows calculating the permeability coefficients for 6-O-Ac-Tre by fitting the model to the experimental results for 6-O-Ac-Tre. First, we made a few simplifying assumptions. […] We also assumed that the enzymatic kinetics of the de-acetylation process were similar for all the steps of hydrolysis of (n)-O-Ac-Tre to (n-1)-O-Ac-Tre. Therefore, Knm=K^m and Vnmax=V^max for n≤6.
(§7) The model was fit to 3 separate data sets obtained from incubation of cells with 5, 15 and 30 mM 6-O-Ac-Tre, each obtained consisting out of total trehalose and total (n)-O-Ac-Tre variants concentration data (Fig 4, also see S1 Fig). The model was fit to the data up to 9 h incubation. The results are plotted in Fig 4. Using only 3 fitting parameters, the model fit all the 6 data sets very closely with nonlinear regression coefficient R^2 values >0.92. By increasing the incubation concentration from 5 to 30 mM, the value of permeability increased from 2.2×10^−9 to 8.0×10^−9 m s^-1 resulting in an average of 5.0±3.4×10^−9 m s^-1.

[4] = as above; type: in vitro ADME, rat; conditions: female, Lewis, rat, not told, pH 7.1, read-out: P, membrane permeability
Excerpt: as §1, §2, §3, §4, §5, §6, §7

rat hepatocytes [5] = experiment: Overall morphology of hepatocytes after loading; type: cell-based; conditions: post-loading incubation after 15 and 30 mM for 6 h
Experimental: We next examined the long-term functional activity of hepatocytes after incubation with 6-O-Ac-Tre. The cells were incubated for 14 days following the incubation with 15 and 30 mM 6-O-Ac-Tre for 6 h (Fig 5). During the post-loading incubation, the cells were examined for overall morphology, viability and the albumin secretion. Mitochondrial membrane potential (ΔΨ) was also examined.

rat hepatocytes [6] = experiment: Mitochondrial membrane potential (JC-1, Mito-Tracker Red) after loading; type: cell-based; conditions: after 6 h incubation
Experimental: To determine mitochondrial function after incubation with acetylated trehalose, we used JC-1 for membrane potential and Mito-Tracker Red CMRox for imaging following the manufacturers’ protocols. The hepatocytes were seeded in fibronectin-coated plates and were allowed to attach and spread for 24–48 h. Then, the cells were incubated with 30 mM 6-O-Ac-Tre and 25 mM HEPES for 6 h, after which the wells were washed with excess medium and the cells incubated for 24 h before the assay. Immediately upon the start of incubation with staining agents, the plates were placed in the fluorescent plate reader and the fluorescence was read for 30 min at 579/599 nm excitation/emission wavelengths for Mito-Tracker and at 485 nm excitation and 530/590 nm emission wavelengths for the green and red channels respectively of JC-1. For imaging mitochondria, the hepatocytes were cultured on collagen-coated glass cover slips for 48 h, and were stained with Mito-Tracker Red 24 h after the incubation with 6-O-Ac-Tre for 6 h. The control group was prepared without incubation with 6-O-Ac-Tre. The cover slips were then washed with excess PBS and imaged using a Zeiss microscope with fluorescence capability.

rat hepatocytes [7] = experiment: Hepatocyte albumin secretion ELISA, 14-day follow-up after loading; type: cell-based; set-up: dose or concentration left out as unconfirmed
Experimental: The hepatocytes were seeded at 0.6×10^6 cell/well on the collagen gel in 12-well plates. Collagen gel was formed by the addition of 200 μL of collagen solution to each well and incubation for 20 min at 37°C. The cells were allowed to attach and spread at least 24 h before the experiments. […] After the collagen solution solidified, 0.5 mL of medium was added per well and the plate was incubated at 10% CO2 and 37°C. Every 24 h for 14 days, the medium from each well was separately collected and 0.5 mL fresh medium was added to each well. The collected samples were stored at -80°C freezer until analyzed.
Albumin secretion was assayed following an ELISA protocol developed in-house. Briefly, 96-well high-binding ELISA plates were coated with 5 μg/well rat albumin in 100 μL PBS and incubated overnight at 4 °C. Coated plates were washed with PBS-Tween (0.05%) at least 3 times and 50 μL of the media or standards were added to wells in the plate. Albumin antibody was diluted 1:10000 in PBS-tween and 50 μL was added to each well and incubated overnight at 4 °C. At the end of incubation, the plates were washed with PBS-0.05% Tween at least 3 times. A substrate solution of o-phenylenediamine dihydro-chloride (OPD, 400 μg/mL) and 4 μM H2O2 was prepared in a citric acid buffer. […] Reaction was stopped by addition of 50 μL 8N sulfuric acid and the difference in absorbance was measured at 490 nm.

Water solubility = type: physicochemical

Structure (SMILES): CC(=O)OC1C(OC2OC(CO)C(O)C(OC(C)=O)C2OC(C)=O)OC(CO)C(O)C1OC(C)=O (stereo not shown) [4-O-Ac-Tre, trehalose tetraacetate]
- enhancement of membrane permeability over regular trehalose (rat hepatocytes [1]): did not observe a significant enhancement of the permeability

Structure (SMILES): CC(=O)OC1C(CO)OC(OC2OC(CO)C(OC(C)=O)C(OC(C)=O)C2OC(C)=O)C(OC(C)=O)C1OC(C)=O (stereo not shown) [6-O-Ac-Tre, trehalose hexaacetate]
- MTT viability versus control (rat hepatocytes [2]): no significant difference
- K^m of intracellular esterase deacetylation (rat hepatocytes [3]; Average±S.D. over 5, 15, 30 mM): 0.097 ± 0.006 mM
- V^max of intracellular esterase deacetylation (rat hepatocytes [3]; Average±S.D. over 5, 15, 30 mM): 0.0167 ± 0.01 mM/s
- K^m of intracellular esterase deacetylation (rat hepatocytes [3]; C* 5 mM): 0.09 mM
- V^max of intracellular esterase deacetylation (rat hepatocytes [3]; C* 5 mM): 0.007 mM/s
- K^m of intracellular esterase deacetylation (rat hepatocytes [3]; C* 15 mM): 0.1 mM
- V^max of intracellular esterase deacetylation (rat hepatocytes [3]; C* 15 mM): 0.016 mM/s
- K^m of intracellular esterase deacetylation (rat hepatocytes [3]; C* 30 mM): 0.1 mM
- V^max of intracellular esterase deacetylation (rat hepatocytes [3]; C* 30 mM): 0.027 mM/s
- K m (rat hepatocytes [3]; constant from 5 to 30 mM incubation): ~ 0.1 mM
- average conversion rate by esterases (rat hepatocytes [3]; hydrolysis of acetylated trehalose): 60 ± 36 mM/h
- Papp at 9 h ([4]; Average±S.D. over 5, 15, 30 mM): 0.5 ×10⁻⁶ cm/s
- Papp at 9 h, 5 mM ([4]; C* 5 mM, fit up to 9 h): 0.22 ×10⁻⁶ cm/s
- Papp at 9 h, 15 mM ([4]; C* 15 mM, fit up to 9 h): 0.39 ×10⁻⁶ cm/s
- Papp at 9 h, 30 mM ([4]; C* 30 mM, fit up to 9 h): 0.8 ×10⁻⁶ cm/s
- uptake compared with trehalose, 2-Act-Tre and 4-Act-Tre (rat hepatocytes [1]): at least one order of magnitude higher
- overall morphology and lipid droplet formation versus control (rat hepatocytes [5]): minimal changes
- mitochondrial ΔΨ versus control (Mito-Tracker Red, JC-1 ratio) (rat hepatocytes [6]): no significant difference
- albumin secretion versus control (rat hepatocytes [7]): eventually increased to similar levels as the control group within 10 days

Structure (SMILES): CC(=O)OCC1OC(OC2OC(COC(C)=O)C(OC(C)=O)C(OC(C)=O)C2OC(C)=O)C(OC(C)=O)C(OC(C)=O)C1OC(C)=O (stereo not shown) [8-O-Ac-Tre]
- water solubility (Water solubility): not water soluble

Structure (SMILES): CC(=O)OCC1OC(OC2OC(COC(C)=O)C(O)C(O)C2O)C(O)C(O)C1O (stereo not shown) [trehalose diacetate]
- enhancement of membrane permeability over regular trehalose (rat hepatocytes [1]): did not observe a significant enhancement of the permeability
